# According to patent publication US8114895B2, “Use of bipyridine compound ‘Caerulomycin A’ derivatives and analogs thereof as immunosuppressive agents” (Council of Science and Industrial Research, priority 2005, dated 2012):
# Experiments:
# CD4^+ T cells = assay: CD28, CTLA-4 and LFA-1 expression on T cells by flow cytometry; assay type: cell-based
# Description: CD28 and CTLA-4 expression was detected on the surface of the resting and ConA activated CD4^+ T cells by flow cytometric analysis. Briefly, the splenocytes (3×10^6 cells/well) were activated with OVA (200 μg/ml) or ConA (1 μg/ml and 2 μg/ml) and were incubated in the presence of different concentrations of Caerulomycin A (0.0125-0.45 μg/ml). The cultures were harvested after 24, 48, 72 and 96 h and cells were stained for the expression of CD4, CD28 and CTLA-4. Further, cultures were also set where Caerulomycin A was added after 24 h and 48 h of the initiation of cultures and the cells were stained after incubating further for 24 h. The cells were harvested and 3-color staining was done using PE (Phycoerythrin) conjugated anti-CD4 Ab, FITC (Fluorescein isothiocyanate) conjugated anti-CTLA-4, and Cy (Cy-chrome) conjugated CD28 Abs. The cells from each suspension were acquired on CELLQUEST software of FACScan (Becton Dickinson, Mountain View, Calif.). […] The analysis for the mean fluorescence intensity (MFI) was done on histograms where abcissa and ordinate denote log fluorescence and relative cell count, respectively.
# Examples establishing the role of Caerulomycin A [isolated from a novel species of Actinoalloteichus] in inducing immunosuppression based on the following: • Splenocytes of BALB/c mice were stimulated with either ConA (1 μg/ml and 2 μg/ml) or LPS (5 μg/ml and 10 μg/ml) and were cultured with different concentrations of Caerulomycin A (0.0003-0.1 μg/ml). […] Radioactivity incorporated was measured by liquid scintillation counting. • Antigen ovalbumin (100 μg/ml) emulsified in Freund's complete adjuvant was injected in a group consisting of 5 BALB/c mice. […] Radioactivity incorporated was measured by liquid scintillation. The culture supernatants were collected after 48 h and cytokines were measured by ELISA. • Immunosuppressive effect of different doses of Caerulomycin A was monitored on naïve CD4^+ T cells, antigen reactive CD4^+ T cells, Th2 clone and Th1 hybridoma. […]
# [1] = Funk and Divekar 1959; cited from earlier work
# [2] = CD4+ T cells, Caerulomycin A 0.0125-0.45 μg/ml
smiles,measurement,setting,value
"COc1cc(/C=N/O)nc(-c2ccccn2)c1 [Caerulomycin A, (E)-4-methoxy-2,2′-bipyridine-6-carbaldehyde oxime]",expression or percentage of LFA-1 positive cells,CD4^+ T cells,did not exhibit any significant change
same,expression and percentage of CD28,CD4^+ T cells; [2],decreased the expression and percentage
same,expression and percentage of CTLA-4 positive cells,CD4^+ T cells; [2],significantly enhanced the expression but also the percentage
same,antibacterial activity,[1],mild antibacterial activity
same,antifungal activity,[1],strong antifungal activity
